Reference: PMC9537541, “Synthesis and anticancer activity of new benzensulfonamides incorporating s-triazines as cyclic linkers for inhibition of carbonic anhydrase IX” (Scientific Reports, 2022)
Structures can show the parent of a compound that is named as a salt.

Key:
hCA I = biological target: T1, hCA I (Homo sapiens, UniProt P00915); assay: stopped-flow CO2 hydrase assay, hCA I; type: biochemical; details: stopped flow technique, mean from 3 different assays
T1 construct: made in house
Protocol: (§1) Target compounds of series (A) and (B) were screened as inhibitors concerning the physiologically relevant hCAs; cytosolic isoforms (hCA I and II) in addition to the transmembrane tumor related isoforms (hCA IX and XII) via a stopped-flow assay of carbonic anhydrase catalyzed CO2 hydration. Acetazolamide (AAZ), CA I drug, was also incorporated in the assays as a standard drug. […] Four CA isoforms inhibition activity was measured by assaying CA catalyzed CO2 hydration via an applied photophysics stopped-flow instrument. PRISM 3 and the Cheng-prusoff equation were used to determine the inhibition constant by non-linear least square methods as reported, and represent the mean from three different determination at least. All tested carbonic anhydrase isoforms were recombinant proteins prepared in lab as described earlier,[57].

hCA II = biological target: T2, hCA II (Homo sapiens, UniProt P00918); assay: stopped-flow CO2 hydrase assay, hCA II; type: biochemical; details: stopped flow technique, mean from 3 different assays
T2 construct: made in house
Protocol: as §1

hCA IX = biological target: T3, hCA IX (Homo sapiens, UniProt Q16790); assay: stopped-flow CO2 hydrase assay, hCA IX; type: biochemical; details: for Ki: stopped flow technique, mean from 3 different assays; for Selectivity index (SI) I/IX: hCA IX over off-target hCA I; for Selectivity index (SI) II/IX: hCA IX over off-target hCA II
T3 construct: made in house
Protocol: as §1

hCA XII = biological target: T4, hCA XII (Homo sapiens, UniProt O43570); assay: stopped-flow CO2 hydrase assay, hCA XII; type: biochemical; details: for Ki: stopped flow technique, mean from 3 different assays; for Selectivity index (SI) I/XII: hCA XII over off-target hCA I; for Selectivity index (SI) II/XII: hCA XII over off-target hCA II
T4 construct: made in house
Protocol: as §1

CNS cancer (SNB-75) = assay: NCI single dose SRB screen, SNB-75; type: cell-based; details: Homo sapiens, SNB-75, 48 h, 10^−5 M single dose, read-out: GI% CNS cancer (SNB-75)
Protocol: (§2) Target compounds in series (A) and (B), were submitted to the National Cancer Institute (NCI) Developmental Therapeutic Program (www.dtp.nci.nih.gov), where they have been assessed, in vitro for their anticancer activity. Two series (A) and (B), were screened in a single dose (10 µM) versus full panel composed of 60 cancer cell lines, in accordance with protocol of drug evaluation branch, NCI, Bethesda. Sulforhodamine B (SRB) colorimetric assay was used to determine cell growth and viability,[40].
(§3) Protocol of Drug Evaluation Branch, NCI, Bethesda, was adopted in the antitumor assay. Assessment of cell growth and viability was carried out utilizing SRB assay and 48 h drug exposure protocol as previously reported,[40].

Renal cancer (UO-31) = assay: NCI single dose SRB screen, UO-31; type: cell-based; details: Homo sapiens, UO-31, 48 h, 10^−5 M single dose, read-out: GI% Renal cancer (UO-31)
Protocol: as §2, §3

[1] = system: Breast cancer (MDA-MB-468); assay: NCI single dose SRB screen, MDA-MB-468; type: cell-based; details: Homo sapiens, MDA-MB-468, 48 h, 10^−5 M single dose, 48 h, SRB; read-out: GI% Breast cancer (MDA-MB-468)
Protocol: as §2, §3

Leukemia (SR) = assay: NCI single dose SRB screen, SR; type: cell-based; details: 48 h, 10^−5 M single dose, read-out: GI% Leukemia (SR)
Protocol: as §2, §3

T1 sequence (P00915 whole entry): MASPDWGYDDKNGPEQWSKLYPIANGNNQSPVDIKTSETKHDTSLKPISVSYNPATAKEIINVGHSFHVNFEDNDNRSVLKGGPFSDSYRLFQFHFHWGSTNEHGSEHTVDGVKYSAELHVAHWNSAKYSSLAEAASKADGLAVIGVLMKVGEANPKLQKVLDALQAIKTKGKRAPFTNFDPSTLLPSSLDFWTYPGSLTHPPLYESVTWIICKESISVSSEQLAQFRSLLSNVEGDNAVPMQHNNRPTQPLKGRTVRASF
T4 sequence (O43570 25-354): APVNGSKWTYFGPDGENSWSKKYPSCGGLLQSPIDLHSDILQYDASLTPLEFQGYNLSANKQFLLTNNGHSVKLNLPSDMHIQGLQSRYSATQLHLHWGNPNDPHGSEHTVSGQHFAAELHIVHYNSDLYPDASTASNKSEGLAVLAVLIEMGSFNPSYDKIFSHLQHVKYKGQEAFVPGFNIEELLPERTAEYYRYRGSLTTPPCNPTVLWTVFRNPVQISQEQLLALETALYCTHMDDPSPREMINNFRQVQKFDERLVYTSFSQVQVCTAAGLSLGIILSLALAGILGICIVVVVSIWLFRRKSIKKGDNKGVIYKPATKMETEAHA

| melting point | Ki (hCA I) | Ki (hCA II) | Ki (hCA IX) | Ki (hCA XII) | Selectivity index (SI) I/IX (hCA IX) | Selectivity index (SI) II/IX (hCA IX) | Selectivity index (SI) I/XII (hCA XII) | Selectivity index (SI) II/XII (hCA XII) | SMILES | inhibition at 10 µM (CNS cancer (SNB-75)) | inhibition at 10 µM (Renal cancer (UO-31)) | inhibition at 10 µM [1] | inhibition at 10 µM (Leukemia (SR)) |
| --- | --- | --- | --- | --- | --- | --- | --- | --- | --- | --- | --- | --- | --- |
| 239 to 241 °C | – | – | – | – | – | – | – | – | NC1=NC2(CCCCCC2)N(c2ccc(S(=O)(=O)Nc3ccccn3)cc2)C(N)=N1 (as salt: HCl) [Compound 6g, 4-(2,4-Diamino-1,3,5-triazaspiro[5.6]dodeca-2,4-dien-1-yl)-N-(pyridin-2-yl)benzene-1-sulfonamide.HCl] | – | – | – | – |
| 217 to 219 °C | – | – | – | – | – | – | – | – | CC1CCC2(CC1)N=C(N)N=C(N)N2c1ccc(S(=O)(=O)Nc2ccccn2)cc1 (centres unmarked) (as salt: HCl) [Compound 6f., 4-(2,4-Diamino-9-methyl-1,3,5-triazaspiro[5.5]undeca-2,4-dien-1-yl)-N-(pyridin-2-yl)benzene-1-sulfonamide.HCl] | – | – | – | – |
| 246 to 248 °C | – | – | – | – | – | – | – | – | NC1=NC2(CCCCC2)N(c2ccc(S(=O)(=O)Nc3ccccn3)cc2)C(N)=N1 (as salt: HCl) [Compound 6e, 4-(2,4-Diamino-1,3,5-triazaspiro[5.5]undeca-2,4-dien-1-yl)-N-(pyridin-2-yl)benzene-1-sulfonamide.HCl] | – | – | – | – |
| 243 to 245 °C | – | – | – | – | – | – | – | – | CC1CCC2(CC1)N=C(N)N=C(N)N2c1ccc(S(=O)(=O)Nc2nccs2)cc1 (centres unmarked) (as salt: HCl) [Compound 6j, 4-(2,4-Diamino-9-methyl-1,3,5-triazaspiro[5.5]undeca-2,4-dien-1-yl)-N-(1,3-thiazol-2-yl)benzene-1-sulfonamide.HCl] | – | – | – | – |
| – | > 10 µM | > 10 µM | > 10 µM | > 10 µM | – | – | – | – | NC1=NC2(CCCCCC2)N(c2ccc(S(=O)(=O)Nc3ccccn3)cc2)C(N)=N1 [Compound 6g, 4-(2,4-Diamino-1,3,5-triazaspiro[5.6]dodeca-2,4-dien-1-yl)-N-(pyridin-2-yl)benzene-1-sulfonamide.HCl] | 33% | 14% | ≤ 10% | ≤ 10% |
| – | > 10 µM | > 10 µM | > 10 µM | > 10 µM | – | – | – | – | NC1=NC2(CCCCC2)N(c2ccc(S(=O)(=O)Nc3ccccn3)cc2)C(N)=N1 [Compound 6e, 4-(2,4-Diamino-1,3,5-triazaspiro[5.5]undeca-2,4-dien-1-yl)-N-(pyridin-2-yl)benzene-1-sulfonamide.HCl] | ≤ 10% | 11% | ≤ 10% | ≤ 10% |
| – | > 10 µM | > 10 µM | > 10 µM | > 10 µM | – | – | – | – | CC1CCC2(CC1)N=C(N)N=C(N)N2c1ccc(S(=O)(=O)Nc2ccccn2)cc1 (centres unmarked) [Compound 6f., 4-(2,4-Diamino-9-methyl-1,3,5-triazaspiro[5.5]undeca-2,4-dien-1-yl)-N-(pyridin-2-yl)benzene-1-sulfonamide.HCl] | 23% | 11% | ≤ 10% | ≤ 10% |
| – | > 10 µM | > 10 µM | > 10 µM | > 10 µM | – | – | – | – | NC1=NC2(CCCC2)N(c2ccc(S(=O)(=O)Nc3ccccn3)cc2)C(N)=N1 [Compound 6d, 4-(7,9-Diamino-6,8,10-triazaspiro[4.5]deca-7,9-dien-6-yl}-N-(pyridin-2-yl)benzene-1-sulfonamide.HCl] | 30% | 12% | ≤ 10% | ≤ 10% |

The remaining lines, values behind:

| SMILES | melting point | Ki (hCA I) | Ki (hCA II) | Ki (hCA IX) | Ki (hCA XII) | Selectivity index (SI) I/IX (hCA IX) | Selectivity index (SI) II/IX (hCA IX) | Selectivity index (SI) I/XII (hCA XII) | Selectivity index (SI) II/XII (hCA XII) | inhibition at 10 µM (CNS cancer (SNB-75)) | inhibition at 10 µM (Renal cancer (UO-31)) | inhibition at 10 µM [1] | inhibition at 10 µM (Leukemia (SR)) |
| --- | --- | --- | --- | --- | --- | --- | --- | --- | --- | --- | --- | --- | --- |
| CC1CCC2(CC1)N=C(N)N=C(N)N2c1ccc(S(=O)(=O)Nc2nccs2)cc1 (centres unmarked) [Compound 6j, 4-(2,4-Diamino-9-methyl-1,3,5-triazaspiro[5.5]undeca-2,4-dien-1-yl)-N-(1,3-thiazol-2-yl)benzene-1-sulfonamide.HCl] | – | > 10 µM | > 10 µM | > 10 µM | > 10 µM | – | – | – | – | 29% | 17% | ≤ 10% | ≤ 10% |
| CC1CCC2(CC1)N=C(N)N=C(N)N2c1ccc(S(N)(=O)=O)cc1 (centres unmarked) [Compound 6c, 4-(2,4-Diamino-9-methyl-1,3,5-triazaspiro[5.5]undeca-2,4-dien-1-yl)benzene-1-sulfonamide.HCl] | – | 0.145 µM | 0.179 µM | 1.85 µM | 4.91 µM | 0.1 | 0.1 | 0.02 | 0.04 | 21% | 16% | ≤ 10% | ≤ 10% |
| NC1=NC2(CCCC2)N(c2ccc(S(N)(=O)=O)cc2)C(N)=N1 [Compound 6a, 4-(7,9-Diamino-6,8,10-triazaspiro[4.5]deca-7,9-dien-6-yl) benzene-1-sulfonamide HCl] | – | 0.628 µM | 0.832 µM | 1.06 µM | 5.34 µM | 0.6 | 0.8 | 0.1 | 0.2 | ≤ 10% | 19% | 18% | 13% |
| NC1=NC2(CCCCC2)N(c2ccc(S(=O)(=O)Nc3nccs3)cc2)C(N)=N1 [Compound 6i, 4-(2,4-Diamino-1,3,5-triazaspiro[5.5]undeca-2,4-dien-1-yl)-N-(1,3-thiazol-2-yl)benzene-1-sulfonamide.HCl] | – | > 10 µM | > 10 µM | > 10 µM | > 10 µM | – | – | – | – | ≤ 10% | 14% | ≤ 10% | ≤ 10% |
| NC1=NC2(CCCC2)N(c2ccc(S(=O)(=O)Nc3nccs3)cc2)C(N)=N1 [Compound 6h, 4-{7,9-Diamino-6,8,10-triazaspiro[4.5]deca-7,9-dien-6-yl}-N-(1,3-thiazol-2-yl)benzene-1-sulfonamide.HCl] | – | > 10 µM | > 10 µM | > 10 µM | > 10 µM | – | – | – | – | ≤ 10% | 17% | ≤ 10% | ≤ 10% |
| CC1CCC2(CC1)N=C(N)N=C(N)N2c1ccc(S(N)(=O)=O)cc1 (centres unmarked) (as salt: HCl) [Compound 6c, 4-(2,4-Diamino-9-methyl-1,3,5-triazaspiro[5.5]undeca-2,4-dien-1-yl)benzene-1-sulfonamide.HCl] | 245 to 247 °C | – | – | – | – | – | – | – | – | – | – | – | – |
| NC1=NC2(CCCCC2)N(c2ccc(S(N)(=O)=O)cc2)C(N)=N1 (as salt: HCl) [Compound 6b, 4-(2,4-Diamino-1,3,5-triazaspiro[5.5]undeca-2,4-dien-1-yl)benzene-1-sulfonamide.HCl] | 257 to 259 °C | – | – | – | – | – | – | – | – | – | – | – | – |
| NC1=NC2(CCCC2)N(c2ccc(S(N)(=O)=O)cc2)C(N)=N1 (as salt: HCl) [Compound 6a, 4-(7,9-Diamino-6,8,10-triazaspiro[4.5]deca-7,9-dien-6-yl) benzene-1-sulfonamide HCl] | 240 to 241 °C | – | – | – | – | – | – | – | – | – | – | – | – |
| NC1=NC2(CCCCC2)N(c2ccc(S(N)(=O)=O)cc2)C(N)=N1 [Compound 6b, 4-(2,4-Diamino-1,3,5-triazaspiro[5.5]undeca-2,4-dien-1-yl)benzene-1-sulfonamide.HCl] | – | 0.437 µM | 0.915 µM | 1.16 µM | 4.85 µM | 0.4 | 0.8 | 0.1 | 0.2 | 28% | ≤ 10% | ≤ 10% | ≤ 10% |
| CC1(C)N=C(N)N=C(N)N1c1ccc(S(N)(=O)=O)cc1 [Compound 5a, 4-(4,6-Diamino-1-phenyl-1,2-dihydro-2,2-dimethyl-1,3,5-triazin-1-yl) benzene-1-sulfonamide HCl] | – | 0.884 µM | 0.913 µM | 0.135 µM | 3.52 µM | 6.7 | 6.8 | 0.3 | 0.2 | 29% | ≤ 10% | ≤ 10% | ≤ 10% |
| CC1(C)N=C(N)N=C(N)N1c1ccc(S(=O)(=O)Nc2nccs2)cc1 [Compound 5c, 4-(4,6-Diamino-2,2-dimethyl-1,2-dihydro-1,3,5-triazin-1-yl)-N-(thiazol-2-yl)benzene-1-sulfonamide.HCl] | – | > 10 µM | > 10 µM | > 10 µM | > 10 µM | – | – | – | – | 35% | 11% | ≤ 10% | ≤ 10% |
